Assay results reported in patent publication US12643882B2, “Inhibitors of human respiratory syncytial virus and metapneumovirus” (priority 2022, dated 2026).
Read-outs that look alike come from different tables or passages of the source.

Assays:
RSV-A2-GFP virus = assay: microbe, parasite or virus in culture; type: cell-based, Human Respiratory Syncytial Virus
Outline: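 IC50 (GFP-expressing cell counts by Acumen imaging) and CC50 (same-well CellTiter-Glo) were obtained by 4-parameter logistic fitting. Compounds were tested in 10-point 3-fold series for 96 h at 37° C, 5% CO2. Thawed Calu-1 ARF cells were infected at MOI 1.2 with GFP-reporter RSV-A2 in 2% FBS DMEM.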

hMPV-GFP virus = assay: microbe, parasite or virus in culture; type: cell-based, human metapneumovirus
Outline: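 Antiviral IC50 was derived from imaging counts of GFP-expressing cells, with CC50 from a same-well CellTiter-Glo read, both by 4-parameter logistic fitting. VERO cells plus hMPV-GFP (MOI 1.25) were exposed 48 h at 37 °C to 10-point 3-fold compound dilutions (typical final 40,300–2 nM).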

[1] = human respiratory syncytial virus, Calu-1, 96 h, read-out: RSV EC50, Calu-1 cells infected with RSV-A2-GFP, 96 hrs, GFP-expressing cells counted
[2] = human metapneumovirus, Vero, 48 h, read-out: hMPV EC50, VERO cells infected with hMPV-GFP, 48 hrs, GFP-expressing cells counted
[3] = Calu-1 cells infected with RSV-A2-GFP, 96 hrs, GFP-expressing cells counted, read-out: RSV EC50
[4] = VERO cells infected with hMPV-GFP, 48 hrs, GFP-expressing cells counted, read-out: hMPV EC50
[5] = read-out: hMPV EC50, VERO cells infected with hMPV-GFP, 48 hrs, GFP-expressing cells counted

Cc1nn(-c2ncccn2)cc1C(=O)N1C[C@@H]2[C@H](C1)[C@H]2Oc1cc(C(C)(C)N)cc(-c2ccc(F)c(F)c2)n1 [Example 80, ((1R,5S,6s)-6-((4-(2-aminopropan-2-yl)-6-(3,4-difluorophenyl)pyridin-2-yl)oxy)-3-azabicyclo[3.1.0]hexan-3-yl)(3-methyl-1-(pyrimidin-2-yl)-1H-pyrazol-4-yl)methanone]
EC50 (RSV-A2-GFP virus; [1]): < 10 nM | EC50 (hMPV-GFP virus; [2]): 10 to 100 nM

Cc1nn(-c2ncccn2)cc1C(=O)N1C[C@@H]2[C@H](C1)[C@H]2Oc1cc(C(C)(C)N)cc(NC(C)C2CCCC2)n1 (stereo partly drawn) [Example 128A, ent-((1R,5S,6s)-6-((4-(2-aminopropan-2-yl)-6-((1-cyclopentylethyl)amino)pyridin-2-yl)oxy)-3-azabicyclo[3.1.0]hexan-3-yl)(3-methyl-1-(pyrimidin-2-yl)-1H-pyrazol-4-yl)methanone]
EC50 (RSV-A2-GFP virus; [3]): < 10 nM | EC50 (hMPV-GFP virus; [4]): > 100 nM

Cc1nn(-c2ncccn2)cc1C(=O)N1C[C@@H]2[C@H](C1)[C@H]2Oc1cc(C(C)(C)N)cc(-c2cc(F)c(F)cc2F)n1 [Example 81, ((1R,5S,6s)-6-((4-(2-aminopropan-2-yl)-6-(2,4,5-trifluorophenyl)pyridin-2-yl)oxy)-3-azabicyclo[3.1.0]hexan-3-yl)(3-methyl-1-(pyrimidin-2-yl)-1H-pyrazol-4-yl)methanone]
EC50 (RSV-A2-GFP virus; [3]): < 10 nM | EC50 (hMPV-GFP virus; [4]): 10 to 100 nM

Cc1ccc(-c2cc(C(C)(C)N)cc(O[C@H]3[C@@H]4CN(C(=O)c5sc(-c6ncccn6)nc5C)C[C@@H]43)n2)c(C)c1 [Example 33, ((1R,5S,6s)-6-((4-(2-aminopropan-2-yl)-6-(2,4-dimethylphenyl)pyridin-2-yl)oxy)-3-azabicyclo[3.1.0]hexan-3-yl)(4-methyl-2-(pyrimidin-2-yl)thiazol-5-yl)methanone]
EC50 (RSV-A2-GFP virus; [3]): < 10 nM | EC50 (hMPV-GFP virus; [4]): > 100 nM

Cc1cc(-c2cc(C(C)(C)N)cc(O[C@H]3[C@@H]4CN(C(=O)c5sc(-c6ncccn6)nc5C)C[C@@H]43)n2)ccc1F [Example 35, ((1R,5S,6s)-6-((4-(2-aminopropan-2-yl)-6-(4-fluoro-3-methylphenyl)pyridin-2-yl)oxy)-3-azabicyclo[3.1.0]hexan-3-yl)(4-methyl-2-(pyrimidin-2-yl)thiazol-5-yl)methanone]
EC50 (RSV-A2-GFP virus; [3]): < 10 nM | EC50 (hMPV-GFP virus; [4]): > 100 nM

Cc1nn(-c2ncccn2)cc1C(=O)N1C[C@H]2[C@H](Oc3cc(C(C)(C)N)cc(-c4ccc(F)c(F)c4)n3)[C@@]2(C)C1 (single isomer, unassigned; enantiomer 1) [Example 106A]
EC50 (RSV-A2-GFP virus; [1]): < 10 nM | EC50 (hMPV-GFP virus; [5]): > 100 nM

Cn1nc(-c2ncccn2)cc1C(=O)N1C[C@@H]2[C@H](C1)[C@H]2Oc1cc(C(C)(C)N)cc(-c2ccc(F)cc2Cl)n1 [Example 57, ((1R,5S,6s)-6-((4-(2-aminopropan-2-yl)-6-(2-chloro-4-fluorophenyl)pyridin-2-yl)oxy)-3-azabicyclo[3.1.0]hexan-3-yl)(1-methyl-3-(pyrimidin-2-yl)-1H-pyrazol-5-yl)methanone]
EC50 (RSV-A2-GFP virus; [3]): < 10 nM | EC50 (hMPV-GFP virus; [4]): > 100 nM

Cn1nc(-c2ncccn2)cc1C(=O)N1C[C@@H]2[C@H](C1)[C@H]2Oc1cc(C(C)(C)N)cc(-c2ccc(F)c(Cl)c2)n1 [Example 56, ((1R,5S,6s)-6-((4-(2-aminopropan-2-yl)-6-(3-chloro-4-fluorophenyl)pyridin-2-yl)oxy)-3-azabicyclo[3.1.0]hexan-3-yl)(1-methyl-3-(pyrimidin-2-yl)-1H-pyrazol-5-yl)methanone]
EC50 (RSV-A2-GFP virus; [3]): < 10 nM | EC50 (hMPV-GFP virus; [4]): > 100 nM

Cc1nc(-c2ncccn2)sc1C(=O)N1C[C@@H]2[C@H](C1)[C@H]2Oc1cc(C(C)(C)N)cc(-c2ccc3c(c2)CCO3)n1 [Example 34, ((1R,5S,6s)-6-((4-(2-aminopropan-2-yl)-6-(2,3-dihydrobenzofuran-5-yl)pyridin-2-yl)oxy)-3-azabicyclo[3.1.0]hexan-3-yl)(4-methyl-2-(pyrimidin-2-yl)thiazol-5-yl)methanone]
EC50 (RSV-A2-GFP virus; [3]): < 10 nM | EC50 (hMPV-GFP virus; [4]): > 100 nM

Cc1nc(-c2ncccn2)sc1C(=O)N1C[C@@H]2[C@H](C1)[C@H]2Oc1cc(C(C)(C)N)cc(-c2ccc(C(C)(F)F)cc2)n1 [Example 26, ((1R,5S,6s)-6-((4-(2-aminopropan-2-yl)-6-(4-(1,1-difluoroethyl)phenyl)pyridin-2-yl)oxy)-3-azabicyclo[3.1.0]hexan-3-yl)(4-methyl-2-(pyrimidin-2-yl)thiazol-5-yl)methanone]
EC50 (RSV-A2-GFP virus; [3]): < 10 nM | EC50 (hMPV-GFP virus; [4]): 10 to 100 nM

Cc1nn(-c2ncccn2)nc1C(=O)N1C[C@@H]2[C@H](C1)[C@H]2Oc1cc(C(C)(C)N)cc(-c2ccc(F)cc2)n1 [Example 76, ((1R,5S,6s)-6-((4-(2-aminopropan-2-yl)-6-(4-fluorophenyl)pyridin-2-yl)oxy)-3-azabicyclo[3.1.0]hexan-3-yl)(5-methyl-2-(pyrimidin-2-yl)-2H-1,2,3-triazol-4-yl)methanone]
EC50 (RSV-A2-GFP virus; [3]): 10 to 100 nM | EC50 (hMPV-GFP virus; [4]): > 100 nM

Cc1nc(-c2ncccn2)sc1C(=O)N1C[C@@H]2[C@H]1C[C@H]2Oc1cc(C(C)(C)N)cc(-c2ccc(F)cc2)n1 (single isomer, unassigned) [Example 1A]
EC50 (RSV-A2-GFP virus; read-out: RSV EC50, Calu-1 cells infected with RSV-A2-GFP, 96 hrs, GFP-expressing cells counted): > 100 nM | EC50 (hMPV-GFP virus; [2]): > 100 nM

Cc1nc(-c2ncccn2)sc1C(=O)N1C[C@@H]2[C@H](C1)[C@H]2Oc1cc(C(C)(C)N)cc(-c2ccc(F)c(F)c2F)n1 [Example 14, ((1R,5S,6s)-6-((4-(2-aminopropan-2-yl)-6-(2,3,4-trifluorophenyl)pyridin-2-yl)oxy)-3-azabicyclo[3.1.0]hexan-3-yl)(4-methyl-2-(pyrimidin-2-yl)thiazol-5-yl)methanone]
EC50 (RSV-A2-GFP virus; [3]): < 10 nM | EC50 (hMPV-GFP virus; [4]): 10 to 100 nM

Cc1nc(-c2ncccn2)sc1C(=O)N1C[C@@H]2[C@H](C1)[C@H]2Oc1cc(C(C)(C)N)cc(-c2ccc(C(F)F)cc2)n1 [Example 25, ((1R,5S,6s)-6-((4-(2-aminopropan-2-yl)-6-(4-(difluoromethyl)phenyl)pyridin-2-yl)oxy)-3-azabicyclo[3.1.0]hexan-3-yl)(4-methyl-2-(pyrimidin-2-yl)thiazol-5-yl)methanone]
EC50 (RSV-A2-GFP virus; [3]): < 10 nM | EC50 (hMPV-GFP virus; [4]): 10 to 100 nM

CC1(C)CCN(c2cc(C(C)(C)N)cc(O[C@H]3[C@@H]4CN(C(=O)c5cn(-c6ncccn6)nc5C(F)F)C[C@@H]43)n2)CC1 [Example 101, ((1R,5S,6s)-6-((4-(2-aminopropan-2-yl)-6-(4,4-dimethylpiperidin-1-yl)pyridin-2-yl)oxy)-3-azabicyclo[3.1.0]hexan-3-yl)(3-(difluoromethyl)-1-(pyrimidin-2-yl)-1H-pyrazol-4-yl)methanone]
EC50 (RSV-A2-GFP virus; [3]): < 10 nM | EC50 (hMPV-GFP virus; [4]): > 100 nM

CC(C)(N)c1cc(O[C@H]2[C@@H]3CN(C(=O)c4cn(-c5ncccn5)nc4Cn4nccn4)C[C@@H]32)nc(-c2ccc(F)cc2)c1 [Example 130, (3-((2H-1,2,3-triazol-2-yl)methyl)-1-(pyrimidin-2-yl)-1H-pyrazol-4-yl)((1R,5S,6s)-6-((4-(2-aminopropan-2-yl)-6-(4-fluorophenyl)pyridin-2-yl)oxy)-3-azabicyclo[3.1.0]hexan-3-yl)methanone]
EC50 (RSV-A2-GFP virus; [1]): < 10 nM | EC50 (hMPV-GFP virus; [2]): > 100 nM

Cn1nc(-c2ncccn2)cc1C(=O)N1C[C@H]2[C@H](Oc3cc(C(C)(C)N)cc(-c4ccc(F)c(F)c4)n3)[C@@]2(C)C1 (single isomer, unassigned; enantiomer 1) [Example 105A]
EC50 (RSV-A2-GFP virus; [1]): < 10 nM | EC50 (hMPV-GFP virus; [5]): > 100 nM

Cn1nc(-c2ncccn2)cc1C(=O)N1C[C@H]2[C@H](Oc3cc(C(C)(C)N)cc(-c4ccc(C(F)(F)F)cc4)n3)[C@@]2(C)C1 (single isomer, unassigned; enantiomer 1) [Example 110A]
EC50 (RSV-A2-GFP virus; [1]): < 10 nM | EC50 (hMPV-GFP virus; [5]): 10 to 100 nM

Cc1nc(-c2ncccn2)sc1C(=O)N1C[C@@H]2[C@H](C1)[C@H]2Oc1cc(C(C)(C)N)cc(-c2ccc(C(F)(F)F)cc2Cl)n1 [Example 30, ((1R,5S,6s)-6-((4-(2-aminopropan-2-yl)-6-(2-chloro-4-(trifluoromethyl)phenyl)pyridin-2-yl)oxy)-3-azabicyclo[3.1.0]hexan-3-yl)(4-methyl-2-(pyrimidin-2-yl)thiazol-5-yl)methanone]
EC50 (RSV-A2-GFP virus; [3]): < 10 nM | EC50 (hMPV-GFP virus; [4]): 10 to 100 nM

Cc1nn(-c2ncccn2)cc1C(=O)N1C[C@@H]2[C@H](C1)[C@H]2Oc1cc(C(C)(C)N)cc(-c2ccc(F)c(Cl)c2)n1 [Example 83, ((1R,5S,6s)-6-((4-(2-aminopropan-2-yl)-6-(3-chloro-4-fluorophenyl)pyridin-2-yl)oxy)-3-azabicyclo[3.1.0]hexan-3-yl)(3-methyl-1-(pyrimidin-2-yl)-1H-pyrazol-4-yl)methanone]
EC50 (RSV-A2-GFP virus; [3]): < 10 nM | EC50 (hMPV-GFP virus; [4]): > 100 nM

CC(C)(N)c1cc(O[C@H]2[C@@H]3CN(C(=O)c4sc(-c5ncccn5)nc4C(F)F)C[C@@H]32)nc(-c2ccc(F)cc2)c1 [Example 49, ((1R,5S,6s)-6-((4-(2-aminopropan-2-yl)-6-(4-fluorophenyl)pyridin-2-yl)oxy)-3-azabicyclo[3.1.0]hexan-3-yl)(4-(difluoromethyl)-2-(pyrimidin-2-yl)thiazol-5-yl)methanone]
EC50 (RSV-A2-GFP virus; [1]): < 10 nM | EC50 (hMPV-GFP virus; [2]): 10 to 100 nM
